Assays:
Canis familiaris [1] = species: Canis familiaris; assay: Intrinsic activity was measured as maximum contraction relative to 5-HT in dog saphenous vein; type: functional, Canis lupus familiaris
Oryctolagus cuniculus [2] = species: Oryctolagus cuniculus; assay: (§1) Intrinsic activity was measured as maximum contraction relative to 5-HT in rabbit basilar artery; type: functional
[3] = as §1; type: functional, Oryctolagus cuniculus
Canis familiaris [4] = species: Canis familiaris; assay: In vitro evaluation in the dog saphenous vein for maximal response; type: functional, organism-based; conditions: Canis lupus familiaris
Oryctolagus cuniculus [5] = species: Oryctolagus cuniculus; assay: In vitro evaluation in rabbit basilar artery for maximal response; type: functional, organism-based
[6] = biological target: Serotonin 2 (5-HT2) receptor (Rattus norvegicus) (UniProt P30994+P08909+P14842); conditions: Cortex
[7] = biological target: T1, 5-hydroxytryptamine receptor 2C (Rattus norvegicus) (UniProt P08909)
T1 sequence (whole entry): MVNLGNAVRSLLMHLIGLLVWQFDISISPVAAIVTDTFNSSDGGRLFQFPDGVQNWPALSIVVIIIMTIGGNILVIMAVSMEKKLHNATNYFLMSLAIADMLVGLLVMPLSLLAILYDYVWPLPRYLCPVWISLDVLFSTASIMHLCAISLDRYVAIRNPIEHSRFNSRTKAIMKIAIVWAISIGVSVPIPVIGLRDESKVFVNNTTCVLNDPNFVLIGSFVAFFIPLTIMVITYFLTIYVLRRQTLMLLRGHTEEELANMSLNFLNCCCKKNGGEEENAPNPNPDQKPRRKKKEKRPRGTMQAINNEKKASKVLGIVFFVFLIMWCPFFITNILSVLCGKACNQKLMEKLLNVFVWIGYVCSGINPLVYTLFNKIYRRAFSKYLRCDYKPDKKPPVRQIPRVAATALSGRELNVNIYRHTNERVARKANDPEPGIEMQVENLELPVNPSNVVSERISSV

[8] = biological target: Serotonin 2 (5-HT2) receptor (Homo sapiens) (UniProt P41595+P28223+P28335)
Chain of Serotonin 2 (5-HT2) receptor (Homo sapiens) (P28223 whole entry, looked up): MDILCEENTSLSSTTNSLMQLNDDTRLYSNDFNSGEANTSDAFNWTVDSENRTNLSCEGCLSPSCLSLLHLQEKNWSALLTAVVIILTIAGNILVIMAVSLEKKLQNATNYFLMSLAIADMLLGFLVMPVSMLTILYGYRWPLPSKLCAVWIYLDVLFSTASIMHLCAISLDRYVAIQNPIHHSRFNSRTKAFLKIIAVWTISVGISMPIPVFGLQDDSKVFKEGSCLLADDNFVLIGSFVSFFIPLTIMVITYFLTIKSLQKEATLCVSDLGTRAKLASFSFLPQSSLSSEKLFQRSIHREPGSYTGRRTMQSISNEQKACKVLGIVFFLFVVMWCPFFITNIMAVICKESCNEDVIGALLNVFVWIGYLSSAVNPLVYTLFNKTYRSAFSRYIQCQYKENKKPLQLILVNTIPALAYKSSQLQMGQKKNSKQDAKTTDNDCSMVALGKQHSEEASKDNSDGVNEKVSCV
Chain of Serotonin 2 (5-HT2) receptor (Homo sapiens) (P28335 whole entry, looked up): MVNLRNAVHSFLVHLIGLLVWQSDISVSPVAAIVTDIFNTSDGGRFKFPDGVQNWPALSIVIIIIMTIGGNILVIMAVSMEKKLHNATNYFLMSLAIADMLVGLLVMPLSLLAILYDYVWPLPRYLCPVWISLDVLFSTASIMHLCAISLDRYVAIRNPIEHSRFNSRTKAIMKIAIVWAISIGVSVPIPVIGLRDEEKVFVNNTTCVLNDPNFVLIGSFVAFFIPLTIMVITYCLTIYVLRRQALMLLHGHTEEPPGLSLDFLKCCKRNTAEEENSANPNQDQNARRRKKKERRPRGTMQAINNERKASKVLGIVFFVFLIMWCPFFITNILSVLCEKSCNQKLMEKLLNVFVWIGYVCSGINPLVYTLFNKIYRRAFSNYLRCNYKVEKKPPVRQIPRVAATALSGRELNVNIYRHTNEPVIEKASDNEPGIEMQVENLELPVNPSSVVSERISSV
Chain of Serotonin 2 (5-HT2) receptor (Homo sapiens) (P41595 whole entry, looked up): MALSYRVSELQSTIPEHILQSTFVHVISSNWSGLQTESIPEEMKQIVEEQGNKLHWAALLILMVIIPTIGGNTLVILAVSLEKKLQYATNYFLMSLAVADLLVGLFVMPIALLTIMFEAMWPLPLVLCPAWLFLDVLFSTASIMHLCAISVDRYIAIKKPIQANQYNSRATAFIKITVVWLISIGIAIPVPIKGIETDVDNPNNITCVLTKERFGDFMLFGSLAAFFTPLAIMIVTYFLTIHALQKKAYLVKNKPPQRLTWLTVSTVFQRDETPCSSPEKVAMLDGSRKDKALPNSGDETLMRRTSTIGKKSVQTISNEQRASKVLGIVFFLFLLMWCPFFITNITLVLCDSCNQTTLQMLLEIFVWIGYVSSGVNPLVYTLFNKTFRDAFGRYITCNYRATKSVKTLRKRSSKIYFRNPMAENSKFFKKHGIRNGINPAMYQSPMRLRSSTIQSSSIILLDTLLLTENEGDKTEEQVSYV

Chain of Serotonin 2 (5-HT2) receptor (Rattus norvegicus) (P14842 whole entry, looked up, one chain of several): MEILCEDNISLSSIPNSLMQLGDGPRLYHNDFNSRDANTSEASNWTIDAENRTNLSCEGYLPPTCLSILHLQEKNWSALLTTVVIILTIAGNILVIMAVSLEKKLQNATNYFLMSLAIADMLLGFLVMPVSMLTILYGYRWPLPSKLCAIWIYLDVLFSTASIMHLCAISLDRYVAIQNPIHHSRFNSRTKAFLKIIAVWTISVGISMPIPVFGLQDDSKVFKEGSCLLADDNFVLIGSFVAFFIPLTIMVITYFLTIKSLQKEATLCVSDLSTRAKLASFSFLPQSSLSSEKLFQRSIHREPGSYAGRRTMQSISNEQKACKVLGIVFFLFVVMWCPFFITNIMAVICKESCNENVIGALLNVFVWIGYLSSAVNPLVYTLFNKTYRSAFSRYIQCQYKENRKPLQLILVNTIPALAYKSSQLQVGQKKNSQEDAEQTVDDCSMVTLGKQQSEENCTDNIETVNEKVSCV
Chain of Serotonin 2 (5-HT2) receptor (Rattus norvegicus) (P30994 whole entry, looked up, one chain of several): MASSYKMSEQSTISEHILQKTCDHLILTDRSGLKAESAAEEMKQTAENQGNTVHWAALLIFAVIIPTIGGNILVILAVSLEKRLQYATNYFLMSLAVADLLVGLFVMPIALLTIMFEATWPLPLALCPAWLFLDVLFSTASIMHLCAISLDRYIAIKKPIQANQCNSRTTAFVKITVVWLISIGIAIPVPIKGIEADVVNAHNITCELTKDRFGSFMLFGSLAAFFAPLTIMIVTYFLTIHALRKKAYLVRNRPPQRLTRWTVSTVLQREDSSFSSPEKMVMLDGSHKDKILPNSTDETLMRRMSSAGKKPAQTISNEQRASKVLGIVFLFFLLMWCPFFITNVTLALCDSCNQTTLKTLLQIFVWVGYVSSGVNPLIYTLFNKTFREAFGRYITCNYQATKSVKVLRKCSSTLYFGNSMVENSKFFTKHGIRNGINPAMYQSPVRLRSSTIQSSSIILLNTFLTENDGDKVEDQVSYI

CCN(CC)C(=O)N[C@H]1C=C2c3cccc4[nH]cc(c34)C[C@H]2N(C)C1 [LISURIDE]
IA (Canis familiaris [1]): 0.73
IA (Oryctolagus cuniculus [2]): 0.73

NCCc1c[nH]c2ccc(O)cc12 [SEROTONIN]
IA (Canis familiaris [1]): 1
IA [3]: 1

CNS(=O)(=O)Cc1ccc2[nH]cc(CCN(C)C)c2c1
EC50 (Canis familiaris [4]): 400 nM
IA (Canis familiaris [1]): 0.78
IA (Oryctolagus cuniculus [2]): 0.74
EC50 (Oryctolagus cuniculus [5]): 2400 nM
pKD [6]: > 4

NCCc1c[nH]c2ccc(C(N)=O)cc12
pKD [7]: 6.2
pKD [8]: 4.7
